# Measured values reported in US20240216395A1, “19-NOR C3,3-DISUBSTITUTED C21 -N-PYRAZOLYL STEROID FOR USE IN TREATING MAJOR DEPRESSIVE DISORDER AND […]” (priority 2021, published 2024).
# Values joined by “and” are separate entries in the source; they are usually repeats but may differ in a detail not shown here. Equal values may be shown once.
# System: adult subjects with major depressive disorder (MDD)
# Test: Phase 3 placebo-controlled study of Compound (1) 50 mg QD for 14 days in MDD (NCT04442490): efficacy scales
# Type: in vivo, human
# Conditions: for Day 15 HAMD-17 improvement maintained on average: Day 15 HAMD-17 responders; for Day 15 MADRS improvement maintained on average: Day 15 MADRS responders
# From the text: Title of Study: A Phase 3, Multicenter, Double-Blind, Randomized, Placebo-Controlled Study Evaluating the Efficacy of Compound (1) in the Treatment of Adult Subjects with Major Depressive Disorder
# This was a randomized, double-blind, parallel-group, placebo-controlled study in subjects with MDD. The diagnosis of MDD was made according to Structured Clinical Interview for Diagnostic and DSM-5 Clinical Trial Version (SCID-5-CT) performed by a qualified healthcare professional.
# Eligible subjects were stratified based on use of antidepressant treatment (current/stable or not treated/withdrawn ≥60 days) and randomized within each stratum to one of 2 treatment groups (Compound (1)—50 mg or matching placebo) in a 1:1 ratio. Subjects self-administered study drug once daily at approximately 8 PM with fat-containing food (e.g., within 1 hour of an evening meal which contains fat or with a fat-containing snack), on an outpatient basis, for 14 days. Subjects returned to the study center during the treatment and follow-up periods as outlined in Table 1.
# Subjects self-administered Compound (1) (50 mg or 40 mg [for dose adjustments only as permitted]) or matching placebo orally once daily at approximately 8 PM with food for 14 days. The 50-mg and 40-mg doses was administered as 2 capsules per dose (50 mg, administered as one 30 mg-capsule and one 20-mg capsule, and 40-mg, administered as two 20-mg capsules). Placebo was also administered as 2 capsules to maintain the blind.
# The estimand for the primary efficacy analysis was the mean change from baseline in HAM-D total score at Day 15. This was analyzed using a mixed effects model for repeated measures (MMRM); the model included treatment, baseline HAM-D total score, stratification factor, assessment time point, and time point-by-treatment as explanatory variables. All explanatory variables were treated as fixed effects. All post-baseline time points were included in the model. The main comparison was between Compound (1) and placebo at the 15-day time point. Model-based point estimates (e.g., least squares [LS] means, 95% confidence intervals, and p-values) were reported where applicable. An unstructured covariance structure was used to model the within-subject errors. If there was a convergence issue with the unstructured covariance model, Toeplitz, or Autoregressive (1) [AR(1)] covariance structure was used, following this sequence until convergence was achieved. […] When the covariance structure was not UN, the sandwich estimator for the variance covariance matrix was derived, using the EMPIRICAL option in the PROC MIXED statement in SAS.
# Similar to those methods described above for the primary endpoint, an MMRM was used for the analysis of the change from baseline in other time points in HAM-D total score, MADRS total score, HAM-A total score, SF-36v2 score, PHQ-9 score, and selected individual items and/or subscale scores in HAM-D for change from baseline.
# Generalized estimating equation (GEE) methods were used for the analysis of HAM-D Response (defined as ≥50% reduction from baseline in HAM-D total score) and HAM-D Remission (defined as HAM-D total score of ≤7.0). GEE models included terms for treatment, baseline score, stratification factor, assessment time point, and time point-by-treatment as explanatory variables. The comparison of interest was the difference between Compound (1) and matching placebo at the 15-day time point. Model-based point estimates (e.g., odds ratios), 95% confidence intervals, and p-values were reported.
# A GEE method was also used for the analysis of CGI-I Response including terms for treatment, baseline CGI-S score, stratification factor, assessment time point, and time point-by-treatment as explanatory variables.
# Compound (1) is an investigational two-week, once-daily oral drug for MDD that represents a potential new class of drug for the management of this common but serious mental health disorder. […]
smiles,measurement,setting,value
"C[C@@]1(O)CC[C@H]2[C@H](CC[C@@H]3[C@@H]2CC[C@]2(C)[C@@H](C(=O)Cn4cc(C#N)cn4)CC[C@@H]32)C1 [Compound (1), 1-(2-((3R,5R,8R,9R,10S,13S,14S,17S)-3-hydroxy-3,13-dimethylhexadecahydro-1H-cyclopenta[a]phenanthren-17-yl)-2-oxoethyl)-1H-pyrazole-4-carbonitrile]",HAMD-17 Remission odds ratio (95% CI) vs placebo,"ADT=No, Day 3","2.4 (0.91, 6.58)"
same,HAMD-17 Response odds ratio (95% CI) vs placebo,"ADT=No, Day 3","2.3 (1.36, 3.79)"
same,HAMD-17 Remission odds ratio (95% CI) vs placebo,"ADT=No, Day 8","2.1 (1.14, 3.91)"
same,HAMD-17 Response odds ratio (95% CI) vs placebo,"ADT=No, Day 8","1.7 (1.08, 2.58)"
same,HAMD-17 Remission odds ratio (95% CI) vs placebo,"ADT=No, Day 12","1.5 (0.92, 2.44)"
same,HAMD-17 Response odds ratio (95% CI) vs placebo,"ADT=No, Day 12","1.5 (1.02, 2.35)"
same,HAMD-17 Remission odds ratio (95% CI) vs placebo,"ADT=No, Day 15","1.1 (0.70, 1.76)"
same,HAMD-17 Response,"ADT=No, Day 15",55.5 n/N (%)
same,HAMD-17 Response odds ratio (95% CI) vs placebo,"ADT=No, Day 15","1.4 (0.92, 2.12)"
same,HAMD-17 Remission odds ratio (95% CI) vs placebo,"ADT=No, Day 21","1.0 (0.62, 1.65)"
same,HAMD-17 Response odds ratio (95% CI) vs placebo,"ADT=No, Day 21","1.1 (0.73, 1.70)"
same,HAMD-17 Remission odds ratio (95% CI) vs placebo,"ADT=No, Day 28","0.86 (0.52, 1.41)"
same,HAMD-17 Response odds ratio (95% CI) vs placebo,"ADT=No, Day 28","1.0 (0.65, 1.55)"
same,HAMD-17 Remission odds ratio (95% CI) vs placebo,"ADT=No, Day 35","1.1 (0.66, 1.74)"
same,HAMD-17 Response odds ratio (95% CI) vs placebo,"ADT=No, Day 35","1.1 (0.72, 1.70)"
same,HAMD-17 Remission odds ratio (95% CI) vs placebo,"ADT=No, Day 42","1.0 (0.61, 1.55)"
same,HAMD-17 Response odds ratio (95% CI) vs placebo,"ADT=No, Day 42","1.2 (0.81, 1.90)"
same,HAMD-17 Response odds ratio (95% CI) vs placebo,"ADT=Yes, Day 3","1.9 (0.87, 3.98)"
same,HAMD-17 Response odds ratio (95% CI) vs placebo,"ADT=Yes, Day 8","1.9 (1.01, 3.73)"
same,HAMD-17 Response odds ratio (95% CI) vs placebo,"ADT=Yes, Day 12","1.9 (0.98, 3.58)"
same,HAMD-17 Response,"ADT=Yes, Day 15",57.3 n/N (%)
same,HAMD-17 Response odds ratio (95% CI) vs placebo,"ADT=Yes, Day 15","1.4 (0.74, 2.71)"
same,HAMD-17 Response odds ratio (95% CI) vs placebo,"ADT=Yes, Day 21","1.8 (0.95, 3.53)"
same,HAMD-17 Response odds ratio (95% CI) vs placebo,"ADT=Yes, Day 28","1.4 (0.72, 2.64)"
same,HAMD-17 Response odds ratio (95% CI) vs placebo,"ADT=Yes, Day 35","1.4 (0.76, 2.75)"
same,HAMD-17 Response odds ratio (95% CI) vs placebo,"ADT=Yes, Day 42","1.7 (0.91, 3.34)"
same,CGI-Improvement Response odds ratio vs placebo,Day 3,1.8 (0.0032)
same,CGI-Severity LS mean TRT diff vs placebo,Day 3,−0.4 (<0.0001)
same,HAMD-17 total score LS mean (SE) CFB,Day 3,−9.8 (0.38)
same,HAMD-17 total score LS mean TRT diff vs placebo,Day 3,−3.0 (<0.0001) points
same,CGI-Improvement Response odds ratio vs placebo,Day 8,1.9 (0.0005)
same,CGI-Severity LS mean TRT diff vs placebo,Day 8,−0.4 (0.0001)
same,HAM-A total score LS mean (SE) CFB,Day 8,−8.7 (0.40)
same,HAMD-17 total score LS mean (SE) CFB,Day 8,−12.0 (0.45)
same,MADRS total score LSM (SE) CFB,Day 8,−14.6 (0.69)
same,CGI-Improvement Response odds ratio vs placebo,Day 12,1.6 (0.0101)
same,CGI-Severity LS mean TRT diff vs placebo,Day 12,−0.3 (0.0014)
same,CGI-Improvement Response odds ratio vs placebo,Day 15,1.5 (0.0191)
same,HAM-A total score LS mean (SE) CFB,Day 15,−10.4 (0.43)
same,HAMD-17 Anxiety subscale LSM difference vs placebo,Day 15,−0.9 points
same,HAMD-17 Bech-6 subscale LSM difference vs placebo,Day 15,−3.2 points
same,HAMD-17 Core Depression subscale LSM difference vs placebo,Day 15,−2.0 points
same,HAMD-17 Maier subscale LSM difference vs placebo,Day 15,−3.0 points
same,HAMD-17 early insomnia item mean reduction from baseline,Day 15,−1.0
same,HAMD-17 late insomnia item mean reduction from baseline,Day 15,−0.8
same,HAMD-17 middle insomnia item mean reduction from baseline,Day 15,−1.2
same,HAMD-17 total score LS mean (SE) CFB,Day 15,−14.1 (0.51)
same,MADRS Response (≥50% reduction) rate,Day 15,51.6%
same,MADRS total score LS mean TRT diff vs placebo,Day 15,−2.4 points and −2.4 (0.0238) points
same,SF-36v2 Bodily Pain (BP) CFB,Day 15,5.26
same,SF-36v2 General Health (GH) CFB,Day 15,4.51
same,SF-36v2 Mental Health (MH) CFB,Day 15,14.45
same,SF-36v2 Physical-Functioning (PF) CFB,Day 15,3.41
same,SF-36v2 Role-Emotional (RE) CFB,Day 15,14.19
same,SF-36v2 Role-Physical (RP) CFB,Day 15,3.45
same,SF-36v2 Social-Functioning (SF) CFB,Day 15,12.89
same,SF-36v2 Vitality (V) CFB,Day 15,13.12
same,SF-36v2 least-squares mean vitality score increase versus placebo,Day 15,3.1
same,HAMD-17 total score LS mean TRT diff vs placebo,Day 15 (primary endpoint),−1.7 points and −1.7 (0.0141) points
same,"HAMD-17 LSM treatment difference vs placebo, subgroup","Day 15, ADT use No (monotherapy)",−1.98
same,"HAMD-17 LSM treatment difference vs placebo, subgroup","Day 15, ADT use Yes (combination)",−1.21
same,"HAMD-17 LSM treatment difference vs placebo, subgroup","Day 15, age 18-24 years",−1.67
same,"HAMD-17 LSM treatment difference vs placebo, subgroup","Day 15, age 25-50 years",−1.96
same,"HAMD-17 LSM treatment difference vs placebo, subgroup","Day 15, age 51-64 years",−1.18
same,"HAMD-17 LSM treatment difference vs placebo, subgroup","Day 15, baseline BMI 18.5-24.9 kg/m^2",−1.02
same,"HAMD-17 LSM treatment difference vs placebo, subgroup","Day 15, baseline BMI 25-29.9 kg/m^2",−3.94
same,"HAMD-17 LSM treatment difference vs placebo, subgroup","Day 15, baseline BMI ≥30 kg/m^2",−1.04
same,"HAMD-17 LSM treatment difference vs placebo, subgroup","Day 15, baseline HAMD-17TS <26",−1.25
same,"HAMD-17 LSM treatment difference vs placebo, subgroup","Day 15, baseline HAMD-17TS ≥26",−1.91
same,"HAMD-17 LSM treatment difference vs placebo, subgroup","Day 15, female",−1.58
same,"HAMD-17 LSM treatment difference vs placebo, subgroup","Day 15, male",−1.81
same,"HAMD-17 LSM treatment difference vs placebo, subgroup","Day 15, race Black",−2.20
same,"HAMD-17 LSM treatment difference vs placebo, subgroup","Day 15, race Other",−4.22
same,"HAMD-17 LSM treatment difference vs placebo, subgroup","Day 15, race White",−1.47
same,Day 15 HAMD-17 improvement maintained on average,Day 28,81.7%
same,Day 15 HAMD-17 improvement maintained on average,Day 42,86.1%
same,Day 15 MADRS improvement maintained on average,Day 28,85.2%
same,Day 15 MADRS improvement maintained on average,Day 42,87.6%
same,Patients retaining ≥65% of Day 15 HAMD-17 improvement,Day 21,81.0%
same,MADRS total score LS mean TRT diff vs placebo,Day 28,−1.5
same,MADRS total score LSM (SE) CFB,Day 28,−16.4 (0.80)
same,HAMD-17 total score LS mean (SE) CFB,Day 42,−13.5 (0.55)
same,HAMD-17 total score LS mean TRT diff vs placebo,Day 42,−0.9
same,MADRS total score LS mean TRT diff vs placebo,Day 42,−1.3
same,MADRS total score LSM (SE) CFB,Day 42,−17.5 (0.83)
same,Patients retaining ≥65% of Day 15 HAMD-17 improvement,Day 42,75.4% and 74.9%
same,HAMD-17 Remission (HAMD-17≤7) rate,"overall, Day 3",7.6%
same,HAMD-17 Remission odds ratio vs placebo,"overall, Day 3",3.57
same,HAMD-17 Response (≥50% reduction) rate,"overall, Day 3",29.3%
same,HAMD-17 Response odds ratio vs placebo,"overall, Day 3",2.14
same,HAMD-17 Response (≥50% reduction) rate,"overall, Day 15",56.0%
same,HAMD-17 Response odds ratio vs placebo,"overall, Day 15",1.40
